According to patent US20040142948A1, “Sulfonamides” (priority 2003, published 2004):

Molecular target: T1, HEK-293 cell membranes containing stable cloned human and rat GPR-14 (UniProt Q9UKP6)
T1 sequence (Q9UKP6 1-389): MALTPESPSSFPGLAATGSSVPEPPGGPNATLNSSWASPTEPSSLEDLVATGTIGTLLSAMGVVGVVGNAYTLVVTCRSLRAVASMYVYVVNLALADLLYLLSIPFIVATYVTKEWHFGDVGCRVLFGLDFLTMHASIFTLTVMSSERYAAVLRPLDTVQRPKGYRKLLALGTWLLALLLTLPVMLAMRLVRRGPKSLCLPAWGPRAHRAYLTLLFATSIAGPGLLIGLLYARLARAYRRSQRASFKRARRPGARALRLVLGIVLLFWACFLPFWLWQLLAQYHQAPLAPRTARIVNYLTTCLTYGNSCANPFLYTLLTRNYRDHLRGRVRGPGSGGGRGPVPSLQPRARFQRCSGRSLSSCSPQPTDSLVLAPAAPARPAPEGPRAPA
Assay: Radioligand binding ([125I] h-U-II)
Details: [125I] h-U-II 200 pM, species of GPR-14 (human or rat) not given
Procedure: HEK-293 cell membranes containing stable cloned human and rat GPR-14 (20 ug/assay) were incubated with 200 pM [125I] h-U-II (200 Ci/mmol^−1 in the presence of increasing concentrations of test compounds in DMSO (0.1 nM to 10 uM), in a final incubation volume of 200 ul (20 mM Tris-HCl, 5 mM MgCl2). Incubation was done for 30 minutes at room temperature followed by filtration GF/B filters with Brandel cell harvester. ^125I labeled U-II binding was quantitated by gamma counting. Nonspecific binding was defined by ^125I U-II binding in the presence of 100 nM of unlabeled human U-II. Analysis of the data was performed by nonlinear least square fitting.

Ki: 230 nM
Structure (SMILES): CN1CC[C@@H](Oc2cc(NS(=O)(=O)c3cccc4nsnc34)ccc2Cl)C1 [Example 3, (R)-N-[4-Chloro-3-(1-methyl-3-pyr-rolidinyloxy)-phenyl]-ben-zo[1,2,5]thiadiazole-1-sulfonamide]
